Experimental data as given in article PMC6009956, “Design, synthesis and biological activity of N^4-phenylsubstituted-7H-pyrrolo[2,3-d]pyrimidin-4-amines as dual inhibitors of aurora kinase A and epidermal growth factor receptor kinase” (Journal of Enzyme Inhibition and Medicinal Chemistry, 2017).
Read-outs that look alike come from different tables or passages of the source.

Key:
[1] = target: EGFR (Homo sapiens, UniProt P00533); test: ADP-Glo kinase assay, EGFR; format: biochemical; parameters: purchased BPS Bioscience (assay run externally by the vendor)
[2] = target: T1, aurora A kinase (AURKA) (Homo sapiens, UniProt O14965); test: ADP-Glo kinase assay, Aurora A; format: biochemical
T1 construct: purchased BPS Bioscience (assay run externally by the vendor)
T1 sequence (O14965 1-403): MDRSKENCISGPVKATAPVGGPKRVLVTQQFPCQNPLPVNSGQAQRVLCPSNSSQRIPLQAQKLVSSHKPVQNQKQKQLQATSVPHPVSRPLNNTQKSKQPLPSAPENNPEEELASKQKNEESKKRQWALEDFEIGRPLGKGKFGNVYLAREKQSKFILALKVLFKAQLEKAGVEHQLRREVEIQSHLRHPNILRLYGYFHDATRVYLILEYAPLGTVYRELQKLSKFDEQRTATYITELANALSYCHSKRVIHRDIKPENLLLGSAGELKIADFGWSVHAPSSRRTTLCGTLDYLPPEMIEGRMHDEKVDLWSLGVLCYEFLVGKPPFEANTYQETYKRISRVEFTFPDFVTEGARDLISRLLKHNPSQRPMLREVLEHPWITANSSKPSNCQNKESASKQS

[3] = 10 µM ATP, triplicate, read-out: EGFR IC50 ± SD
[4] = 10 µM ATP, triplicate, read-out: AURKA IC50 ± SD
[5] = 10 µM ATP/0.2 mg/ml Kemptide, read-out: Aurora A IC50 (dose-response curve, supplement)

Sequence of EGFR (P00533 25-1210): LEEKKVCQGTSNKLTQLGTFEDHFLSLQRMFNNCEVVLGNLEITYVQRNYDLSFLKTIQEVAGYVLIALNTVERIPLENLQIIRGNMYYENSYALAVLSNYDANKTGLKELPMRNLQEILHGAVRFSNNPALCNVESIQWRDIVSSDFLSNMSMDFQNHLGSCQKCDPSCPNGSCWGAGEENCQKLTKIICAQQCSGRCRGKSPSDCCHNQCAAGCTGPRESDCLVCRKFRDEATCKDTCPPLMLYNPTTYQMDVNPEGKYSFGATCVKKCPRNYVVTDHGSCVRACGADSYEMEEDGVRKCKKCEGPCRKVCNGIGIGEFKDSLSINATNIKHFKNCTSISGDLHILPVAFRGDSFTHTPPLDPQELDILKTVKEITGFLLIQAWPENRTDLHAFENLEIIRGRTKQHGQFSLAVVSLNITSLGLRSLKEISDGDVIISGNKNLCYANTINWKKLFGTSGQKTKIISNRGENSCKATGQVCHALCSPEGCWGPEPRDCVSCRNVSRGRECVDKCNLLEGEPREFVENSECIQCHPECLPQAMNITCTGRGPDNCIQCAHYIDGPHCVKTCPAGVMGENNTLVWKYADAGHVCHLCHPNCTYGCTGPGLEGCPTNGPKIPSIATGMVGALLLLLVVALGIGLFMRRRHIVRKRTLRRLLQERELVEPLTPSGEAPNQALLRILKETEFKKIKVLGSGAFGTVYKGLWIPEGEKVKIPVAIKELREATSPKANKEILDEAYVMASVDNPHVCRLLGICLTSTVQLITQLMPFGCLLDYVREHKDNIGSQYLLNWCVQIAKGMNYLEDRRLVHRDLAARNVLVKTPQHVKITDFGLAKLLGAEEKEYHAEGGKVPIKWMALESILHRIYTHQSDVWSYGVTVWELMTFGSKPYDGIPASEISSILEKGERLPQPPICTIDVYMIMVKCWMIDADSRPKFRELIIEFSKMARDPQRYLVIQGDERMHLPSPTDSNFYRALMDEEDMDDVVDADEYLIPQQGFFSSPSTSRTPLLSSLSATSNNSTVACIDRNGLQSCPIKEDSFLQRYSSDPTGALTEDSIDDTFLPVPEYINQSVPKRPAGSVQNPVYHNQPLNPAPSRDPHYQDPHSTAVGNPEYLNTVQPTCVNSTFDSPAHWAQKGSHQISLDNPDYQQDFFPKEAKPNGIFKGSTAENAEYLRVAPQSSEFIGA

## c1ccc(Nc2ncnc3[nH]ccc23)cc1 [Compound 1, N^4-phenyl-7H-pyrrolo[2,3-d]pyrimidine-4-amine]
[1]; [3]
  IC50: 0.254 ± 0.026 µM
[1]; 10 µM ATP/0.2 mg/ml Poly-Glu-Tyr, read-out: EGFR IC50 (dose-response curve, supplement)
  IC50: 0.253 µM
[1]; Log[nM] 0
  EGFR % Activity Set1: 103%
  EGFR % Activity Set2: 98%
  EGFR % Activity Set3: 103%
[1]; Log[nM] 1.0
  EGFR % Activity Set1: 101%
  EGFR % Activity Set2: 110%
  EGFR % Activity Set3: 106%
[1]; Log[nM] 1.5
  EGFR % Activity Set1: 92%
  EGFR % Activity Set2: 91%
  EGFR % Activity Set3: 94%
[1]; Log[nM] 2.0
  EGFR % Activity Set1: 66%
  EGFR % Activity Set2: 71%
  EGFR % Activity Set3: 76%
[1]; Log[nM] 2.5
  EGFR % Activity Set1: 39%
  EGFR % Activity Set2: 42%
  EGFR % Activity Set3: 40%
[1]; Log[nM] 3.0
  EGFR % Activity Set1: 24%
  EGFR % Activity Set2: 22%
  EGFR % Activity Set3: 22%
[1]; Log[nM] 3.5
  EGFR % Activity Set1: 9%
  EGFR % Activity Set2: 9%
  EGFR % Activity Set3: 9%
[1]; Log[nM] 4.0
  EGFR % Activity Set1: 4%
  EGFR % Activity Set2: 5%
  EGFR % Activity Set3: 5%
[1]; Log[nM] 4.5
  EGFR % Activity Set1: 2%
  EGFR % Activity Set2: 2%
  EGFR % Activity Set3: 2%
[1]; Log[nM] 5.0
  EGFR % Activity Set1: 1%
  EGFR % Activity Set2: 1%
  EGFR % Activity Set3: 1%
[2]; [4]
  IC50: 5.58 ± 0.66 µM
[2]; [5]
  IC50: 5.6 µM
[2]; Log[nM] 0
  Aurora A % Activity Set1: 91%
  Aurora A % Activity Set2: 91%
  Aurora A % Activity Set3: 92%
[2]; Log[nM] 1.0
  Aurora A % Activity Set1: 87%
  Aurora A % Activity Set2: 90%
  Aurora A % Activity Set3: 91%
[2]; Log[nM] 1.5
  Aurora A % Activity Set1: 93%
  Aurora A % Activity Set2: 98%
  Aurora A % Activity Set3: 100%
[2]; Log[nM] 2.0
  Aurora A % Activity Set1: 96%
  Aurora A % Activity Set2: 97%
  Aurora A % Activity Set3: 100%
[2]; Log[nM] 2.5
  Aurora A % Activity Set1: 99%
  Aurora A % Activity Set2: 103%
  Aurora A % Activity Set3: 104%
[2]; Log[nM] 3.0
  Aurora A % Activity Set1: 86%
  Aurora A % Activity Set2: 90%
  Aurora A % Activity Set3: 93%
[2]; Log[nM] 3.5
  Aurora A % Activity Set1: 63%
  Aurora A % Activity Set2: 70%
  Aurora A % Activity Set3: 70%
[2]; Log[nM] 4.0
  Aurora A % Activity Set1: 28%
  Aurora A % Activity Set2: 31%
  Aurora A % Activity Set3: 32%
[2]; Log[nM] 4.5
  Aurora A % Activity Set1: 11%
  Aurora A % Activity Set2: 12%
  Aurora A % Activity Set3: 13%
[2]; Log[nM] 5.0
  Aurora A % Activity Set1: 5%
  Aurora A % Activity Set2: 5%
  Aurora A % Activity Set3: 5%

## Clc1ccc(Nc2ncnc3[nH]ccc23)cc1Cl [Compound 5, N^4-(3,4-dichlorophenyl)-7H-pyrrolo[2,3-d]pyrimidine-4-amine]
[1]
  EGFR inhibition (in words): single-digit nanomolar EGFR inhibition
[1]; [3]
  IC50: 0.0067 ± 0.00025 µM
[1]; Log[nM] 0
  EGFR % Activity Set1: 51%
  EGFR % Activity Set2: 59%
  EGFR % Activity Set3: 58%
[1]; Log[nM] 1.0
  EGFR % Activity Set1: 43%
  EGFR % Activity Set2: 46%
  EGFR % Activity Set3: 48%
[1]; Log[nM] 1.5
  EGFR % Activity Set1: 14%
  EGFR % Activity Set2: 16%
  EGFR % Activity Set3: 16%
[1]; Log[nM] 2.0
  EGFR % Activity Set1: 8%
  EGFR % Activity Set2: 9%
  EGFR % Activity Set3: 9%
[1]; Log[nM] 2.5
  EGFR % Activity Set1: 3%
  EGFR % Activity Set2: 4%
  EGFR % Activity Set3: 5%
[1]; Log[nM] 3.0
  EGFR % Activity Set1: 2%
  EGFR % Activity Set2: 2%
  EGFR % Activity Set3: 2%
[1]; Log[nM] 3.5
  EGFR % Activity Set1: 1%
  EGFR % Activity Set2: 1%
  EGFR % Activity Set3: 1%
[1]; Log[nM] 4.0
  EGFR % Activity Set1: 0%
  EGFR % Activity Set2: 0%
  EGFR % Activity Set3: 1%
[1]; Log[nM] 4.5
  EGFR % Activity Set1: 0%
  EGFR % Activity Set2: 0%
  EGFR % Activity Set3: 0%
[1]; Log[nM] 5.0
  EGFR % Activity Set1: 0%
  EGFR % Activity Set2: 3%
  EGFR % Activity Set3: 1%
[2]; [4]
  IC50: 3.91 ± 0.11 µM
[2]; [5]
  IC50: 3.9 µM
[2]; Log[nM] 0
  Aurora A % Activity Set1: 95%
  Aurora A % Activity Set2: 97%
  Aurora A % Activity Set3: 103%
[2]; Log[nM] 1.0
  Aurora A % Activity Set1: 104%
  Aurora A % Activity Set2: 95%
  Aurora A % Activity Set3: 97%
[2]; Log[nM] 1.5
  Aurora A % Activity Set1: 98%
  Aurora A % Activity Set2: 101%
  Aurora A % Activity Set3: 102%
[2]; Log[nM] 2.0
  Aurora A % Activity Set1: 104%
  Aurora A % Activity Set2: 107%
  Aurora A % Activity Set3: 105%
[2]; Log[nM] 2.5
  Aurora A % Activity Set1: 103%
  Aurora A % Activity Set2: 108%
  Aurora A % Activity Set3: 106%
[2]; Log[nM] 3.0
  Aurora A % Activity Set1: 91%
  Aurora A % Activity Set2: 104%
  Aurora A % Activity Set3: 91%
[2]; Log[nM] 3.5
  Aurora A % Activity Set1: 55%
  Aurora A % Activity Set2: 51%
  Aurora A % Activity Set3: 58%
[2]; Log[nM] 4.0
  Aurora A % Activity Set1: 16%
  Aurora A % Activity Set2: 21%
  Aurora A % Activity Set3: 19%
[2]; Log[nM] 4.5
  Aurora A % Activity Set1: 11%
  Aurora A % Activity Set2: 12%
  Aurora A % Activity Set3: 11%
[2]; Log[nM] 5.0
  Aurora A % Activity Set1: 11%
  Aurora A % Activity Set2: 12%
  Aurora A % Activity Set3: 13%
